Columns and labels:
[1] = system: SLEV infection in Vero CCL81 cells; experiment: microbe, parasite or virus in culture; type: cell-based, St. Louis encephalitis virus (SLEV BeH 355964); conditions: for EC50: St. Louis encephalitis virus, 72 h
[2] = Confirmatory dose-response assay, cytotoxicity (CC50); conditions: African green monkey, Vero CCL81 cells
Vero CCL81 cells [3] = experiment: as above; conditions: Vero CCL81, dose-response 100 to 0.32 µM
Huh-7 cells = experiment: MTT cell viability assay, Huh-7; conditions: Huh-7, 48 h; for loss/reduction in cell viability vs vehicle-treated cells: 20 µM
Vero CCL81 cells [4] = experiment: MTT cell viability assay, Vero CCL81
SLEV [5] = experiment: Viral load by plaque-forming assay, SLEV-infected Vero CCL81; type: cell-based, St. Louis encephalitis virus (SLEV BeH 355964); conditions: Vero CCL81, MOI 0.1
SLEV [6] = experiment: Viral load by plaque-forming assay, SLEV-infected Huh-7; type: cell-based, St. Louis encephalitis virus (SLEV BeH 355964); conditions: Huh-7, MOI 0.1, 48 h
SLEV [7] = experiment: Viral load by plaque-forming assay, SLEV-infected HBEC-5i; type: cell-based, St. Louis encephalitis virus (SLEV BeH 355964)
[8] = system: SLEV infection in Vero CCL81 cells; type: cell-based, St. Louis encephalitis virus (SLEV BeH 355964); conditions: 20 µM
HBEC-5i cells = experiment: MTT cell viability assay, HBEC-5i; conditions: HBEC-5i; for reduction in cell viability / toxicity: 20 µM, 48 h; for toxicity at lower concentrations: 20 µM to 2.5 µM, MOI 0.1, 48 h (Figure 5)
[9] = MTT cell viability assay, HBEC-5i; conditions: human, HBEC-5i cells

SMILES | EC50 [1] [µM] | CC50 at 72 h [2] [µM] | CC50 (Vero CCL81 cells [3]) | reduction in viral titers in culture supernatant (SLEV [7]; 20 µM, MOI 0.1, 48 h) | loss/reduction in cell viability vs vehicle-treated cells (Huh-7 cells) | inhibition of SLEV-induced CPE (hit call, cytoprotective effect) [8] | reduction in cell viability / toxicity (HBEC-5i cells) | further results
C[C@@]1(O)[C@H](O)[C@@H](CO)O[C@H]1n1ccc2c(N)ncnc21 [7DMA, 7-deaza-2′-C-methyl-D-adenosine] | 5.1 | > 100 | least cytotoxic |  |  |  |  | reduction in cell viability vs vehicle-treated cells (Huh-7 cells; 40 µM (7DMA)): approx. 10%; reduction in cell viability (Vero CCL81 cells [4]; 40 µM (7DMA), Vero CCL81): less than 10%; reduction in viral load relative to vehicle-treated controls (SLEV [5]; 40 µM (7DMA)): approximately 10 fold; reduction in viral load (SLEV [6]; 40 µM (7DMA)): 10 fold
C[C@@H]1CCCN1CCc1cc2cc(-c3ccc(C#N)cc3)ccc2o1 [ABT-239, 4-(2-{2-[(2R)-2-Methylpyrrolidinyl]ethyl}-benzofuran-5-yl)benzonitrile] | 3.4 | 80.2 |  | approx. 10 fold | approx. 10% | cytoprotective effect | not toxic | reduction in viral load relative to vehicle-treated controls (SLEV [5]; 20 µM): approximately 10 fold
CCCCc1oc2ccccc2c1C(=O)c1cc(I)c(OCCN(CC)CC)c(I)c1 [Amiodarone] |  |  |  | over 10 fold | approx. 10% | cytoprotective effect |  | reduction in viral load (SLEV [6]; 20 µM): not significant
OCCN1CCN(CCCN2c3ccccc3Sc3ccc(C(F)(F)F)cc32)CC1 [Fluphenazine] |  | 30.2 |  | > 100 fold | 90% | cytoprotective effect | not toxic | reduction in viral load (SLEV [7]; 20 µM, MOI 0.1, 48 h, concentration series (Figure 5)): over 50 fold; toxicity at lower concentrations (HBEC-5i cells): not toxic
FC(F)(F)c1ccc(CNc2ccc(Cc3c[nH]c4ncc(Cl)cc34)cn2)cn1 [Pexidartanib] |  |  |  |  |  | cytoprotective effect |  | 
CC[C@@H]([C@H](C)O)n1ncn(-c2ccc(N3CCN(c4ccc(OC[C@@H]5CO[C@@](Cn6cncn6)(c6ccc(F)cc6F)C5)cc4)CC3)cc2)c1=O [Posaconazole] | 0.4 | > 100 | least cytotoxic |  | 50% | cytoprotective effect | approximately 70% | Selectivity Index (SI, CC50/EC50 ratio) ([1]; Vero CCL81): ≥ 12; reduction in cell viability (Vero CCL81 cells [4]; 20 µM, Vero CCL81, vs non-treated controls): 40%
NCCc1cn(S(=O)(=O)c2c(Cl)nc3sccn23)c2ccccc12 [SAX-187] |  |  |  |  |  | cytoprotective effect |  | 
CCN(CC)CCOc1ccc(C(O)(Cc2ccc(Cl)cc2)c2ccc(C)cc2)cc1 (stereo not shown) [Triparanol] | 0.9 | 18.5 |  |  | 90% | cytoprotective effect | ~60% | antiviral effect (viral load) (SLEV [7]; 2.5 µM, MOI 0.1, 48 h (Figure 5)): lost; antiviral effect (viral load) (SLEV [7]; 5 µM, MOI 0.1, 48 h (Figure 5)): lost; reduction in viral load vs vehicle-treated infected group (SLEV [7]; 10 µM, MOI 0.1, 48 h (Figure 5)): over 10 fold; toxicity at lower concentrations (HBEC-5i cells): not toxic
COc1cccc(-c2ccc(NC(=O)C3=C(C(=O)O)CCC3)c(F)c2)c1 [Vidofludimus] | 8.2 | > 100 | least cytotoxic | No antiviral activity | approx. 10% | cytoprotective effect |  | reduction in viral load relative to vehicle-treated controls (SLEV [5]; 20 µM): approximately 10 fold; viability at 48 h, 20 µM [9]: ≤ 90%

— article PMC10747599 (Viruses, 2023)
